# In patent publication US20070099876A1, “Target directed chemotherapy of tumours of the sexual organs” (priority 2003, published 2007):
# Tested on: mammary carcinoma of the rat
# Assay: mammary tumours induced by benzidine in female Wistar rats
# Assay type: in vivo
# Details: low dosage
# Source text: For the development of active agents against tumours of the human sexual organs, an animal model closely similar to human tumours is needed, so that truly significant test results can be accomplished. The known “Huggins tumours” (C. Huggins et al., Rapid induction of mammary carcinoma in the rat and the influence of hormones, J. Exper. Med. 109, 25 (1959)) can be generated and combated easily, e.g. by endocrine manipulations and the usual chemotherapy (e.g. with endoxan®=cyclophosphamide monohydrate). In contrast, the tumours generated by benzidine in female Wistar rats require more time for induction and are (like human mammary tumour) only up to about 50% hormone dependent; they (like human mammary tumour) cannot be influenced effectively by chemotherapeutics and other methods of treatment in the art. Therefore, we have found the desired suitable animal model in Wistar rats with mammary tumours induced by benzidine.
# 20 female Wistar rats are treated with benzidine. The first benzidine dose is 150 mg/kg; then the doses are reduced to weekly 100 mg/kg. Then doses per 75 mg/kg follow within a gap of 14 days. There from a total dose of 1.225 g/kg results.
# In total 29 mammary carcinomas are generated. […]
# After the first tumour is generated (about 0.5 g) the benzidine application is stopped. […] The tumour size is determined tactually; experienced experimenters can determine it precisely to 0.1 g. […]
structure (smiles),measurement,value
"CN(C)/N=N/c1ccc2c(c1)CCC1C2CCC2(C)C(=O)CCC12 (stereo not shown) [Example 11, 3-(1,1-dimethyltriazenyl)-estrone]",effect against mammary carcinoma of the rat,very good effect at low dosage
